The source made the active and inactive calls. The rule behind the calls is not given here.

Three compounds from ChEMBL document CHEMBL6078649, “Discovery of Chalcone Derivatives as Bifunctional Molecules with Anti-SARS-CoV-2 and Anti-inflammatory Activities” (J Nat Prod, 2024) can be followed below.

Data set [1] relates to RAW264.7. The data set can be described thus: Anti-inflammatory activity against mouse RAW264.7 cells assessed as inhibition of LPS-induced NO production at 1 uM preincubated for 1 hr followed by LPS treatment measured after 24 hrs relative to control. The format is functional. The following applies: time 25 hrs.
The nature of data set [2]: Cytotoxicity against human Huh-7 cells harboring viral replicon/EGFP/Neo genes assessed as cell viability incubated for 24 hrs by Cell Titer Glo assay. The format is toxicity, cell-based. For orientation: Replicon systems follow genome replication, usually without infectious particles.
A short description of data set [3]: Cytotoxicity against human Huh-7 cells harboring viral replicon/EGFP/Neo genes assessed as cell viability at 5 uM incubated for 24 hrs by Cell Titer Glo assay relative to control. The format is toxicity, cell-based. As to conditions: read-out: Activity.
Data set [4] is described as follows: Cytotoxicity against mouse RAW264.7 cells assessed as cell viability at 50 uM incubated for 24 hrs by CCK8 assay relative to control. The class given is toxicity, cell-based. As to conditions: read-out: Activity. (In general: Tetrazolium assays rely on reduction of a dye to a coloured formazan, in cell work by metabolically active cells.)
For data set [5], the target named is Replicase polyprotein 1ab (Severe acute respiratory syndrome coronavirus 2) (UniProt P0DTD1). The data set can be described thus: Inhibition of SARS-CoV-2 3CLPro using DabcylKNSTLQSGLRK-Edans as substrate at 50 uM preincubated for 30 mins followed by substrate addition measured after 20 mins by FRET assay relative to control. As to conditions: time 50.0 min.

Data set [6] can be described thus: Cytotoxicity against mouse RAW264.7 cells assessed as cell viability at 1 uM incubated for 24 hrs by CCK8 assay relative to control. The class given is toxicity, cell-based. The following applies: read-out: Activity.
Data set [7] concerns the target T1, Replicase polyprotein 1ab (Severe acute respiratory syndrome coronavirus 2, UniProt P0DTD1).
Data set [8] addresses Replicase polyprotein 1ab (Severe acute respiratory syndrome coronavirus 2) (UniProt P0DTD1). Description: Inhibition of SARS-CoV-2 3CLPro using DabcylKNSTLQSGLRK-Edans as substrate at 5 uM preincubated for 30 mins followed by substrate addition measured after 20 mins by FRET assay relative to control. The following applies: time 50.0 min.
The test system of data set [9] is RAW264.7. Description: Anti-inflammatory activity against mouse RAW264.7 cells assessed as inhibition of LPS-induced NO production at 10 uM preincubated for 1 hr followed by LPS treatment measured after 24 hrs relative to control. The format is functional. The following applies: time 25 hrs.
Data set [10] can be described thus: Cytotoxicity against mouse RAW264.7 cells assessed as cell viability at 10 uM incubated for 24 hrs by CCK8 assay relative to control. As to conditions: read-out: Activity. The class given is toxicity, cell-based.
The nature of data set [11]: Cytotoxicity against human Huh-7 cells harboring viral replicon/EGFP/Neo genes assessed as cell viability at 50 uM incubated for 24 hrs by Cell Titer Glo assay relative to control. The class given is toxicity, cell-based. As to conditions: read-out: Activity.
For data set [12], the target named is T1, Replicase polyprotein 1ab. The data set can be described thus: Inhibition of SARS-CoV-2 3CLPro using DabcylKNSTLQSGLRK-Edans as substrate measured after 60 mins by FRET assay.
Data set [13] deals with Cathepsin B (Homo sapiens) (UniProt P07858). Description: Inhibition of CTSB (unknown origin) using Z-Phe-ArgAMC as substrate at 10 uM preincubated for 30 mins followed by substrate addition by fluorescence based analysis.
Data set [14] deals with Procathepsin L (Homo sapiens) (UniProt P07711). The data set can be described thus: Inhibition of CTSL (unknown origin) using Z-Phe-ArgAMC as substrate at 10 uM preincubated for 30 mins followed by substrate addition by fluorescence based analysis.
Procathepsin L (Homo sapiens), sequence (P07711 114-333 limits assumed): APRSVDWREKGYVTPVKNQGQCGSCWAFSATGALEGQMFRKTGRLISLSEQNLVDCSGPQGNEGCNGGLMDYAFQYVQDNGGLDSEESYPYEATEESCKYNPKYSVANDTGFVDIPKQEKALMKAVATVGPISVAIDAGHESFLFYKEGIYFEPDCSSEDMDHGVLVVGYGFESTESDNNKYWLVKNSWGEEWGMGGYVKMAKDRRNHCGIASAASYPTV
Data set [15] concerns the target Transmembrane protease serine 2 (Homo sapiens) (UniProt O15393). Description: Inhibition of TMPRSS2 (unknown origin) using Boc-GIn-Ala-Arg-AMC as substrate at 10 uM preincubated for 60 mins followed by substrate addition by fluorescence based assay.
Data set [16] deals with Replicase polyprotein 1ab (Severe acute respiratory syndrome coronavirus 2) (UniProt P0DTD1). Description: Covalent binding affinity to SARS-CoV-2 3CLPro at 90 uM by MS analysis.
Data set [17] addresses T2, Chymotrypsin-C (Homo sapiens) (UniProt Q99895).
T2 sequence (whole entry): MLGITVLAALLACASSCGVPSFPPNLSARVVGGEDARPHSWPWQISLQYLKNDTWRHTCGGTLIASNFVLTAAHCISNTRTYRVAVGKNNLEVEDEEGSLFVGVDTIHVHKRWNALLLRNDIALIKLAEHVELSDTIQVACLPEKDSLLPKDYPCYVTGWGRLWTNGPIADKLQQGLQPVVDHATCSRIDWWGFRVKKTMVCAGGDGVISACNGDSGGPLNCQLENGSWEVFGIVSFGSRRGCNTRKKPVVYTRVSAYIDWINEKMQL
Description: Inhibition of human CTRC using succinyl-Ala-Ala-Pro-Phe-p-nitroanilide as substrate at 10 uM preincubated for 30 mins followed by trypsin treatment for 1 hr and subsequent addition of substrate by absorbance based assay.

Data set [18] addresses T1, Replicase polyprotein 1ab. The data set can be described thus: Inhibition of SARS-CoV-2 3CLPro using DabcylKNSTLQSGLRK-Edans as substrate measured after 3 mins by FRET assay.
The next data set deals with 143B. Description: Inhibition of cell proliferation of human 143B cells at 10 uM. The class given is functional, cell-based.
In a further data set the test system is GES1. The data set can be described thus: Inhibition of cell proliferation of human GES1 cells at 10 uM. The class given is functional, cell-based.
The next data set has as its system HOS-TE85. Description: Inhibition of cell proliferation of human MNNG/HOS cells at 10 uM. The class given is functional, cell-based.
Another data set has as its system KHOS/NP. The data set can be described thus: Inhibition of cell proliferation of human KHOS/NP cells at 10 uM. The class given is functional, cell-based.
In the next data set the test system is SJSA-1. Description: Inhibition of cell proliferation of human SJSA-1 cells at 10 uM. The class given is functional, cell-based.
A further data set has as its system MGC-803. The data set can be described thus: Inhibition of cell proliferation of human MGC-803 cells at 10 uM. The format is functional, cell-based.
Data set [19] addresses T1, Replicase polyprotein 1ab. Description: (§1) Mixed inhibition of SARS-CoV-2 3CLPro using DabcylKNSTLQSGLRK-Edans as substrate by FRET assay.
The target in data set [20] is Replicase polyprotein 1ab (Severe acute respiratory syndrome coronavirus 2) (UniProt P0DTD1). The description is as §1.

Transmembrane protease serine 2 (Homo sapiens), sequence (O15393 1-255 limits assumed): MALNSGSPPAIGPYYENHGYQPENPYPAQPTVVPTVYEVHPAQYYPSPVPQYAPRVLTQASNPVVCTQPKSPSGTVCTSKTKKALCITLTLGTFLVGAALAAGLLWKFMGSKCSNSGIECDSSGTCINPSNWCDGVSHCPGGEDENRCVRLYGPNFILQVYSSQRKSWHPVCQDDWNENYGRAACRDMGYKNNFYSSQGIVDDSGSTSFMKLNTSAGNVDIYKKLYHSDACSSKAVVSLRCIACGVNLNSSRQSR
Transmembrane protease serine 2 (Homo sapiens), sequence (O15393 256-492 limits assumed): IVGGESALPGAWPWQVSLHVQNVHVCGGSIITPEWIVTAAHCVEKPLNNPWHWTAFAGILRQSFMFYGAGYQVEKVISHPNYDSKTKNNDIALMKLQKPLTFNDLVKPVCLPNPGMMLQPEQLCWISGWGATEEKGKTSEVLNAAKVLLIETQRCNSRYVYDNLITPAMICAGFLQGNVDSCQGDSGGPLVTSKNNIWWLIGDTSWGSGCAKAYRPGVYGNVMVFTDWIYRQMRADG

Usually inhibition stands for the relative decrease from the control value, in per cent. Usually CC50 stands for the concentration giving 50% cytotoxicity. What is called IC50 is the midpoint of a concentration-inhibition curve. Higher therefore signals weaker potency in that assay. As to `CC(=O)Oc1c(Cl)c(/C=C/C(=O)c2ccc(F)cc2)c(Cl)c(OC(C)=O)c1OC(C)=O`, the inhibition at 1 µM in the data set on RAW264.7 [1] came to 37.4%. In addition, the CC50 at 24 h in data set [2] was above 50000 nM. For the same compound, in [3], the viability at 24 h, 5 µM was 111%. In addition, the values for the viability at 24 h, 50 µM in data set [4] and in data set [11] were 54.1% and 62%, respectively. Also, the inhibition amounted to 1% in data set [5] and 1.1% in data set [8]. For the same compound, the viability at 24 h, 1 µM in data set [6] came out at 93.8%. The same compound displayed an IC50 in [7] of 247 nM. Moreover, in the data set on RAW264.7 [9], the inhibition at 10 µM was 85.2%. Further, the viability at 24 h, 10 µM in [10] was determined as 97.5%.

What is called Ki is a measure of affinity in units of concentration, obtained from inhibition or displacement. Regarding `O=C(/C=C/c1cc(O)c(O)c(O)c1)c1ccc(F)cc1`, the inhibition at 1 µM in the data set on RAW264.7 [1] turned out to be 4.2%. In addition, the CC50 at 24 h in [2] was above 50000 nM. For the same compound, the viability at 24 h, 5 µM in data set [3] amounted to 95.2%. Moreover, the viability at 24 h, 50 µM in [4] turned out to be 100%; in [11], 63.4%. For the same compound, the IC50 in data set [12] turned out to be 93.4 nM; in data set [7] it was 261 nM; in [18], 461 nM. The inhibition result in data set [13], in data set [14] and in [15] was “inactive” each time. For the same compound, the figures for the inhibition in data set [5] and in data set [8] were 0.5% and 2.5%, respectively. For the same compound, in data set [6], the viability at 24 h, 1 µM is 116%. Moreover, affinity in data set [7] was put at a Ki of 800 nM. The outcome in data set [16] was Active. Moreover, in data set [17], the inhibition entry was “Active”. For the same compound, the inhibition at 10 µM with RAW264.7 [9] stood at 68.6%. For the same compound, the viability at 24 h, 10 µM in data set [10] was determined as 109%.

`O=C(/C=C/c1c(Cl)c(O)c(O)c(O)c1Cl)c1ccc(F)cc1`: the inhibition at 1 µM in the data set on RAW264.7 [1] turned out to be 29.1%. The inhibition result (with 143B; with GES1; in the data set with HOS-TE85; in data set [13]; with KHOS/NP; with SJSA-1) was “inactive” throughout. In addition, the inhibition result (in data set [14]; in the data set on MGC-803) was “inactive” each time. Also, in [2], the CC50 at 24 h came out at 41200 nM. In addition, the viability at 24 h, 5 µM in data set [3] was 104%. Moreover, the figures for the viability at 24 h, 50 µM in [4] and in [11] were 114% and 50%, respectively. The IC50 in data set [12] was determined as 110 nM; in data set [7], 83.2 nM; in data set [18], 211 nM. Besides, the inhibition is -0.1% in data set [5], 0.8% in data set [8] and “Dose-dependent-effect; The Result Suggests That Compound May Bind To Both Enzymatic Active Site And Allosteric Sites” in [20]. Besides, in data set [6], the viability at 24 h, 1 µM was 93.7%. Further, the inhibition entry in [15] and in data set [17] was “Active” throughout. Further, the result in [16] was inactive. Also, the inhibition at 10 µM in the data set with RAW264.7 [9] stood at 81.1%. In data set [10], the viability at 24 h, 10 µM is 48.6%. In [19], this compound gave a Ki of 200 nM.
